Test results taken from the NIST ThermoML archive (doi:10.1016/j.tca.2011.10.010).

Assay: xn = mol fraction of the nth substance listed
Settings: 101 kPa, Liquid, Vibrating tube method

CCN(CC)CCO.Cl [2-(diethylamino)ethanol hydrochloride] + OCC(O)CO
mass density [kg/m3]
Settings	x1 = 0.2	x1 = 0.25	x1 = 0.33
298.15 K	1220.1	1205.1	–
303.15 K	1217.3	1202	1170
308.15 K	1214.1	1199	–
313.15 K	1211.4	1196.1	1163.8
318.15 K	1208.1	1192.9	–
323.15 K	1204.8	1188.4	1158.5
328.15 K	1202.1	1186.8	–
333.15 K	1198.9	1184	1153.1
338.15 K	1196.1	1180.7	–
343.15 K	1193.6	1177.7	1145.8
348.15 K	1190.1	1174.6	–
353.15 K	1187.3	1171.9	1140.3
358.15 K	1184.1	1168.5	–
363.15 K	1180.7	1166.1	1134.4
368.15 K	1178.1	1162.4	–

C[P+](c1ccccc1)(c1ccccc1)c1ccccc1.[Br-] [methyltriphenylphosphonium bromide] + OCCO
mass density [kg/m3]
Settings	303.15 K	313.15 K	323.15 K	333.15 K	343.15 K	353.15 K	363.15 K
x1 = 0.16	1216.3	1208.6	1202	1194.7	1187	1179.2	1172.3
x1 = 0.2	1229	1222	1215.1	1207.9	1200.6	1193.6	1186.4
x1 = 0.25	1242.4	1239.8	1232.4	1226	1218.8	1211.9	1204.5

C[P+](c1ccccc1)(c1ccccc1)c1ccccc1.[Br-] [methyltriphenylphosphonium bromide] + OCC(O)CO
mass density [kg/m3]
Settings	x1 = 0.2	x1 = 0.25	x1 = 0.33
298.15 K	1288.9	1297.6	–
303.15 K	1285.5	1294.5	1303
308.15 K	1281.7	1290.6	–
313.15 K	1278	1287	1295.2
318.15 K	1274.5	1283.6	–
323.15 K	1271	1280.9	1288.6
328.15 K	1267.3	1276.6	–
333.15 K	1263.4	1273.6	1281.7
338.15 K	1260.1	1269.6	–
343.15 K	1256.8	1266	1274.9
348.15 K	1252.9	1262.6	–
353.15 K	1249.5	1259.3	1268.2
358.15 K	1245.7	1255.6	–
363.15 K	1242.3	1252.4	1261.5
368.15 K	1238.5	1248.6	–

CCN(CC)CCO.Cl [2-(diethylamino)ethanol hydrochloride] + OCCO
mass density [kg/m3]
Settings	x1 = 0.2	x1 = 0.25	x1 = 0.33
298.15 K	1103.7	–	1099.5
303.15 K	1100.4	1098.6	1096.5
308.15 K	1097.3	–	1093.3
313.15 K	1094.2	1092.6	1090.3
318.15 K	1091	–	1087.1
323.15 K	1087.7	1086.2	1084
328.15 K	1084.6	–	1080.9
333.15 K	1081.5	1079.7	1077.8
338.15 K	1078.2	–	1074.8
343.15 K	1075	1074	1071.7
348.15 K	1071.8	–	1068.6
353.15 K	1068.3	1067.5	1065.5
358.15 K	1065.4	–	1062.4
363.15 K	1062.2	1060	1059
368.15 K	1059	–	1056.2

C[N+](C)(C)CCO.[Cl-] [choline chloride] + OCCO
mass density [kg/m3]
Settings	x1 = 0.28	x1 = 0.33	x1 = 0.36
298.15 K	1117	–	1118
303.15 K	1114.1	1114.6	1115.6
308.15 K	1111.1	–	1112.2
313.15 K	1108.2	1108.8	1109.7
318.15 K	1105.2	–	1106.4
323.15 K	1102.3	1103.6	1103.7
328.15 K	1099.3	–	1100.6
333.15 K	1096.2	1097.4	1096.8
338.15 K	1093.4	–	1094.8
343.15 K	1090.4	1091.6	1091
348.15 K	1087.5	–	1089
353.15 K	1084.7	1085.4	1087
358.15 K	1081.6	–	1083.2
363.15 K	1078.8	1079.1	1082
368.15 K	1075.7	–	1077.4

C[N+](C)(C)CCO.[Cl-] [choline chloride] + OCC(O)CO
mass density [kg/m3]
Settings	x1 = 0.25	x1 = 0.33	x1 = 0.5
298.15 K	1203	1192	–
303.15 K	1200.2	1189.5	1153.5
308.15 K	1197.6	1186.7	–
313.15 K	1195.1	1183.8	1148.3
318.15 K	1192.2	1181.4	–
323.15 K	1189.1	1177.6	1143
328.15 K	1186.8	1176.1	–
333.15 K	1184.4	1174.1	1137.9
338.15 K	1181.4	1170.8	–
343.15 K	1178.1	1167.4	1132.6
348.15 K	1176	1165.5	–
353.15 K	1173.2	1163.5	1126.6
358.15 K	1170.6	1160.2	–
363.15 K	1167.8	1157.1	1122
368.15 K	1165.2	1154.9	–
